Data as given in patent US20030225230A1, “Polymers for antifouling coatings and a process for the preparation thereof” (Jotun A/S, priority 1995, published 2003).

Assays:
[1] = Determination of the hydrolysis rate of monomers in alkaline environment (pH 12); assay type: physicochemical; settings: monomer in aqueous solution, starting pH 12, 25 °C

Row | Molecule | Hydrolysis Rate (4.5 h) [1] [%] | Hydrolysis Rate after 24 h [1] [%] | melting point [°C]
1 | 2-Methacryloyloxymethylbenzoate | 64.4 |  | 
2 | 4-Methacryloyloxymethylbenzoate |  | 54.8 | 
3 | C=C(C)C(=O)Oc1c(Br)cc(Br)cc1Br [2,4,6-Tribromophenylmethacrylate] |  | 13.3 | 140
4 | C=C(C)C(=O)Sc1nc(-c2ccccc2)ns1 [3-Phenyl-5-methacryloylthio-1,2,4-thiadiazole] |  | 12.6 | 110
5 | C=C(C)C(=O)Sc1ccc(Cl)cc1 [4-Chlorothlophenylmethacrylate] |  | 78.0 | 
6 | C=C(C)C(=O)Oc1ccc(NC(C)=O)cc1 [4-Methacryloyloxy acetanilide] |  | 32.9 | 
7 | C=C(C)C(=O)Oc1ccc(OC)cc1 [4-Methoxyphenylmethacrylate] |  | 43.2 | 40
8 | C=C(C)C(=O)Oc1ccc(Br)cc1C=O [5-Bromo-2-methacryloyloxybenzaldehyde] |  | 35.6 | 52
9 | C=C(C)C(=O)OCC(=O)O [Methacryloytoxy acetic acid] |  | 70.1 | 
10 | C=C(C)C(=O)OCC(=O)OC [Methoxycarbonylmethylmethacrylate] | 63.1 |  | 60
11 | C=C(C)C(=O)OCC(=O)OC(C)(C)C [t-Butoxycarbonylmethylmethacrylate] |  | 77.6 | 65
12 | Ethyloxythioglycolic acid methacrylate |  | 80.2 | 
